From patent publication US20190365927A1, “COMPOSITION FOR PHOTODYNAMIC THERAPY USING GENE EXPRESSING FLUORESCENT PROTEIN AND PHOTOSENSITIZER, AND PHOTODYNAMIC THERAPY METHOD USING SAME” (priority 2017, published 2019)

Assays:
[1] = system: GFP cells and non-GFP cells; assay: Peristaltic pump experiment, Hoechst 33342 and PI double staining; assay type: cell-based; settings: 100 μM RB, 4 hours, flow 1 ml/min, 473 nm at 80 mW, repeated passes
Protocol: (1) Non-GFP and GFP cells were seeded in a 100 mm dish at a density of 1×10^7 cells. The next day, 100 μM of rose bengal (RB, santacruz, sc-203757) was applied thereto (in the subsequent procedure, light exposure was avoided as much as possible). A 4 mm ID×6 mm OD×1 mm wall sized transparent tube (Tygon, E-3603) was connected to an EP-1 Econo Pump (Bio-rad, 731-9001) in the dark room. A laser device was prepared.
In four hours after the RB treatment, cells were harvested using trypsin, suspended in 20 ml of the culture medium, and placed in a 50 ml tube. Using a pump, the cell solution passed through the tubing at a flow rate of 1 ml/min and was irradiated with light of 473 nm at an intensity of 80 mW. This process was repeated 2, 4, 8, and 10 times. The resulting cells were seeded in a 1-ml 12-well plate. The next day, double staining was performed to compare the death amounts of non-GFP and GFP cells with each other.
0.5×10^7 of non-GFP cells and 0.5×10^7 of GFP cells were mixed with each other (total 1×10^7). […]
PDT-treated cells were seeded onto a 12-well plate (1 mL per well) while controlling the PDT-treated cells to have a confluence of 50% or larger. […] The number of dead cells (PI-stained cells)/total number of cells*100 per cell image was calculated. Then, the cell death percentage was measured by calculating the average value between the calculated values of three cell images.

GFP cells (GFP-H460) = assay: Experiment using rat cannulation, counting GFP-cancer cells in blood; assay type: in vivo; settings: cells pretreated with 100 μM RB, injected IV into SD rats, 473 nm 80 mW for 5 minutes at cannulated tubing
Protocol: (1) GFP cells (GFP-H460) were seeded into two 100-mm dishes at a concentration of 1×10^7 cells/ml. On the next day, 100 μM of rose bengal (RB) was applied thereto (in the subsequent procedure, light exposure was avoided as much as possible). In 4 hours after RB treatment, the cells were harvested using trypsin, suspended in FBS pre-culture medium at 2×10^6 cells/300 μl, and placed in a 1.5 ml tube.
Six out of 10 8 weeks aged SD rats were injected in IV (tail) manner with the cell solution. The […] sections of the 5 SD rats were incised. The carotid artery and venous vein were discovered and cannulated using a 279 μm ID×609 μm OD×152 μm wall sized polyethylene tubing (BD, 427401) wet with heparin. Thus, blood flow was carried out through the tubing. Irradiation of 473 nm light with an intensity of 80 mW to the cannulated tubing site was performed for 5 minutes. The irradiated rats were weighed and incubated overnight in a constant-temperature constant-humid chamber. […]
1 ml of 0.1 μg/ml DAPI/PBST solution was added thereto. […] GFP-cancer cells were counted using a fluorescent microscope (Nikon, Diaphot 300), and the numbers of GFP-cancer cells according to the presence or absence of light irradiation were compared with each other. […]

[2] = Absorbance spectrum of the photosensitizer; assay type: physicochemical; settings: FIG. 1A

## O=C1OC2(c3cc(I)c(O)c(I)c3Oc3c2cc(I)c(O)c3I)c2c(Cl)c(Cl)c(Cl)c(Cl)c21 [RB, rose bengal]
[1]
  death of GFP versus non-GFP cells in mixed culture: only GFP cells were specifically killed
GFP cells (GFP-H460)
  GFP-cancer cells in blood with or without light irradiation: only GFP cells were specifically killed
[2]
  maximum absorbance: 549 nm
  shoulder absorbance spectrum: 510 nm
